What was measured:
[1] = target: neuraminidase (NA) of recombinant influenza B/Phuket/3073/2013 WT virus (Influenza B virus, UniProt A0A1S5RAG6); type: biochemical, influenza B/Phuket/3073/2013 virus
N294S mutant = settings: cited from earlier work

neuraminidase (NA) of recombinant influenza B/Phuket/3073/2013 WT virus, sequence (A0A1S5RAG6 entry or part of it, added parts left off): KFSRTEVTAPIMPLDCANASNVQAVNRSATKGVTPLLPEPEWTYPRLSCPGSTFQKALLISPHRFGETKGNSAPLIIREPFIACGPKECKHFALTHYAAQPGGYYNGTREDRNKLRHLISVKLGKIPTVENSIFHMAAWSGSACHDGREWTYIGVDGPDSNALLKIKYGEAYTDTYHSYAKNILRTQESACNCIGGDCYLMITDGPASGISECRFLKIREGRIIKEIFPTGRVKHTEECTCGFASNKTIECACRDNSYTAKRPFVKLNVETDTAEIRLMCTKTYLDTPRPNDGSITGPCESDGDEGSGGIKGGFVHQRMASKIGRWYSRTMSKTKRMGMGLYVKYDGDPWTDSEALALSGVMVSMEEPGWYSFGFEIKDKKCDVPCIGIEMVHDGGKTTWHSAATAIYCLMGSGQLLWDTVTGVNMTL

Structure (SMILES)	Folds (fold changes according to WT virus) [1] [fold]	IC50 ([1]; mean of two independent experiments in duplicate, read-out: Neuraminidase Inhibitors IC50 values) [nM]	susceptibility phenotype (N294S mutant)
CCC(CC)[C@H](NC(C)=O)[C@@H]1[C@H](O)[C@@H](C(=O)O)C[C@H]1N=C(N)N [Peramivir, peramivir]	1	0.74	–
CC(=O)N[C@H]1[C@H]([C@H](O)[C@H](O)CO)OC(C(=O)O)=C[C@@H]1N=C(N)N [Zanamivir, zanamivir]	–	–	susceptible

Reference: publication PMC6357004 (Viruses, 2018)
